“And” between values parts separate entries of the source, which are not always exact repeats. Equal values may be shown once.
Experiments:
[1] = molecular target: T1, MspA-PBA (phenylboronic acid modified hetero-octameric (N90C)1(M2)7 MspA) (Mycolicibacterium smegmatis, UniProt A0QR29, D117C/D118N/D120N/D145R/D161R/E166K); assay: Single channel recording of L-Sorbose binding to MspA-PBA nanopore; set-up: species or system Mycobacterium smegmatis; settings: for 1/τoff Mean / 1/τon Mean / Amplitude of L-Sorbose events, Current, Mean: N=3
T1 construct: H6 (hexa-histidine) (C); 3-(maleimide) phenylboronic acid (MPBA) adduct on the thiol of Cys90; made in house; host or cells: E. coli BL21 (DE3) pLysS, co-expression from pETDuet-1

octameric M2 MspA-D16H6 = molecular target: T2, octameric M2 MspA-D16H6 (Mycolicibacterium smegmatis, UniProt A0QR29, D117N/D118N/D120N/D145R/D161R/E166K); assay: L-Sorbose sensing by octameric M2 MspA-D16H6 (control without PBA); assay type: binding, Mycobacterium smegmatis; settings: L-Sorbose 50 mM in cis, +160 mV
T2 construct: D16 (16 consecutive aspartic acids) (C); H6 (hexa-histidine) (C); made in house; host or cells: E. coli BL21 (DE3) pLysS, pET-30a(+)
Procedure: FIG. 11: L-Sorbose sensing by an octameric M2 MspA-D16H6. L-Sorbose sensing was performed with an octameric M2 MspA-D16H6 in a 1.5 M KCl, 10 mM MOPS, pH7.0 buffer. A +160 mV bias was continually applied.
L-Sorbose is a monosaccharide ketose. It exists in all living species, ranging from bacteria to human^50. The commercial production of vitamin C (ascorbic acid) often begins with L-Sorbose^51. To further verify the existence of a PBA in the lumen of the pore, MspA-PBA was used to sense L-Sorbose. The measurement was performed with a single MspA-PBA and a 1.5 M KCl, 10 mM MOPS, pH 7.0 buffer with the continuous application of a +160 m V bias. The addition of L-Sorbose to cis to a 10 mM final concentration resulted immediately in the consecutive appearance of long residing resistive pulse events (FIGS. 1d-1f, Supplementary Video 1). […] In this way, it was confirmed that the introduction of a PBA to the pore lumen is critical for the generation of saccharide sensing events.
The measurement device is composed of two custom-made polyformaldehyde chambers separated by a ˜20 μm-thick Teflon film with a drilled aperture (˜100 μm in diameter). Before the measurement, the aperture was first treated with 0.5% (v/v) hexadecane in pentane and set for evaporation of the pentane. […] All events were detected by the “single channel research” function in Clampfit 10.7. […]

[2] = L-Sorbose 400 μM in cis, +160 mV
[3] = L-Sorbose 800 μM in cis, +160 mV
[4] = L-Sorbose 1200 μM in cis, +160 mV
[5] = L-Sorbose 1600 μM in cis, +160 mV
[6] = L-Sorbose 2000 μM in cis, +160 mV

T2 sequence (A0QR29 other isoform, or with tags, fused parts or gaps D117N/D118N/D120N/D145R/D161R/E166K): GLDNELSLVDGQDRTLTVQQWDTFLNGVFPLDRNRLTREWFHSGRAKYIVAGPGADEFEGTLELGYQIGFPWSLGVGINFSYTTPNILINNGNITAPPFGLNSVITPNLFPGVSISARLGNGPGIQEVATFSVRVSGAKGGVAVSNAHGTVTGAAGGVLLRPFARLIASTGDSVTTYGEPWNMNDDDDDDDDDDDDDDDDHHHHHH

Structure (SMILES): O=C(CO)[C@@H](O)[C@H](O)[C@@H](O)CO [L-Sorbose, L-(−)-Sorbose]
- Amplitude of L-Sorbose events, Current, Pore1 ([1]; 40 mV, L-Sorbose 5 mM in cis): 29.3 ± 0.0005 pA
- Amplitude of L-Sorbose events, Current, Pore2 ([1]; 40 mV, L-Sorbose 5 mM in cis): 29.05 ± 0.0005 pA
- Amplitude of L-Sorbose events, Current, Pore3 ([1]; 40 mV, L-Sorbose 5 mM in cis): 29.2 ± 0.002 pA
- 1/τoff Mean ([1]; 40 mV, L-Sorbose 5 mM in cis): 5.06E−04 ms^−1
- 1/τon Mean ([1]; 40 mV, L-Sorbose 5 mM in cis): 7.9E−04 ms^−1
- Amplitude of L-Sorbose events, Current, Mean ([1]; 40 mV, L-Sorbose 5 mM in cis): 29.2 pA
- Amplitude of L-Sorbose events, Current, Pore1 ([1]; 70 mV, L-Sorbose 5 mM in cis): 54.5 ± 0.010 pA
- Amplitude of L-Sorbose events, Current, Pore2 ([1]; 70 mV, L-Sorbose 5 mM in cis): 52.7 ± 0.0008 pA
- Amplitude of L-Sorbose events, Current, Pore3 ([1]; 70 mV, L-Sorbose 5 mM in cis): 52.5 ± 0.0008 pA
- 1/τoff Mean ([1]; 70 mV, L-Sorbose 5 mM in cis): 4.3E−04 ms^−1
- 1/τon Mean ([1]; 70 mV, L-Sorbose 5 mM in cis): 7.4E−04 ms^−1
- Amplitude of L-Sorbose events, Current, Mean ([1]; 70 mV, L-Sorbose 5 mM in cis): 53.08 pA
- Amplitude of L-Sorbose events, Current, Pore1 ([1]; 100 mV, L-Sorbose 5 mM in cis): 74.6 ± 0.002 pA
- Amplitude of L-Sorbose events, Current, Pore2 ([1]; 100 mV, L-Sorbose 5 mM in cis): 73.2 ± 0.009 pA
- Amplitude of L-Sorbose events, Current, Pore3 ([1]; 100 mV, L-Sorbose 5 mM in cis): 73.3 ± 0.002 pA
- 1/τoff Mean ([1]; 100 mV, L-Sorbose 5 mM in cis): 4.04E−04 ms^−1
- 1/τon Mean ([1]; 100 mV, L-Sorbose 5 mM in cis): 8.7E−04 ms^−1
- Amplitude of L-Sorbose events, Current, Mean ([1]; 100 mV, L-Sorbose 5 mM in cis): 73.7 pA
- Amplitude of L-Sorbose events, Current, Pore1 ([1]; 130 mV, L-Sorbose 5 mM in cis): 91.6 ± 0.003 pA
- Amplitude of L-Sorbose events, Current, Pore2 ([1]; 130 mV, L-Sorbose 5 mM in cis): 90.3 ± 0.004 pA
- Amplitude of L-Sorbose events, Current, Pore3 ([1]; 130 mV, L-Sorbose 5 mM in cis): 90.3 ± 0.004 pA
- 1/τoff Mean ([1]; 130 mV, L-Sorbose 5 mM in cis): 3.8E−04 ms^−1
- 1/τon Mean ([1]; 130 mV, L-Sorbose 5 mM in cis): 8.4E−04 ms^−1
- Amplitude of L-Sorbose events, Current, Mean ([1]; 130 mV, L-Sorbose 5 mM in cis): 90.8 pA
- Amplitude of L-Sorbose events, Current, Pore1 ([1]; 160 mV, L-Sorbose 5 mM in cis): 107.7 ± 0.005 pA
- Amplitude of L-Sorbose events, Current, Pore2 ([1]; 160 mV, L-Sorbose 5 mM in cis): 104.9 ± 0.006 pA
- Amplitude of L-Sorbose events, Current, Pore3 ([1]; 160 mV, L-Sorbose 5 mM in cis): 105.3 ± 0.006 pA
- 1/τoff Mean ([1]; 160 mV, L-Sorbose 5 mM in cis): 2.9E−04 ms^−1
- 1/τon Mean ([1]; 160 mV, L-Sorbose 5 mM in cis): 8.5E−04 ms^−1
- Amplitude of L-Sorbose events, Current, Mean ([1]; 160 mV, L-Sorbose 5 mM in cis): 105.9 pA
- Amplitude of L-Sorbose events, Current, Pore1 ([1]; 190 mV, L-Sorbose 5 mM in cis): 122.9 ± 0.007 pA
- Amplitude of L-Sorbose events, Current, Pore2 ([1]; 190 mV, L-Sorbose 5 mM in cis): 116.7 ± 0.008 pA
- Amplitude of L-Sorbose events, Current, Pore3 ([1]; 190 mV, L-Sorbose 5 mM in cis): 120.7 ± 0.010 pA
- 1/τoff Mean ([1]; 190 mV, L-Sorbose 5 mM in cis): 2.9E−04 ms^−1
- 1/τon Mean ([1]; 190 mV, L-Sorbose 5 mM in cis): 8.3E−04 ms^−1
- Amplitude of L-Sorbose events, Current, Mean ([1]; 190 mV, L-Sorbose 5 mM in cis): 120.13 pA
- Amplitude of L-Sorbose events, Current, Pore1 ([1]; 220 mV, L-Sorbose 5 mM in cis): 143.6 ± 0.02 pA
- Amplitude of L-Sorbose events, Current, Pore2 ([1]; 220 mV, L-Sorbose 5 mM in cis): 132.9 ± 0.02 pA
- Amplitude of L-Sorbose events, Current, Pore3 ([1]; 220 mV, L-Sorbose 5 mM in cis): 137.2 ± 0.013 pA
- 1/τoff Mean ([1]; 220 mV, L-Sorbose 5 mM in cis): 3.4E−04 ms^−1
- 1/τon Mean ([1]; 220 mV, L-Sorbose 5 mM in cis): 8.07E−04 ms^−1
- Amplitude of L-Sorbose events, Current, Mean ([1]; 220 mV, L-Sorbose 5 mM in cis): 137.9 pA
- blockage amplitude (ΔI) / current drop of L-Sorbose sensing events ([1]; +160 mV, L-Sorbose 10 mM in cis): ~100 pA and ~102 pA
- 1/τoff Mean [1, 2]: 2.9E−04 ms^−1
- 1/τon Mean [1, 2]: 5.10E−05 ms^−1
- 1/τoff Mean [1, 3]: 2.9E−04 ms^−1
- 1/τon Mean [1, 3]: 1.03E−04 ms^−1
- 1/τoff Mean [1, 4]: 3.08E−04 ms^−1
- 1/τon Mean [1, 4]: 1.7E−04 ms^−1
- 1/τoff Mean [1, 5]: 3.11E−04 ms^−1
- 1/τon Mean [1, 5]: 2.2E−04 ms^−1
- 1/τoff Mean [1, 6]: 2.9E−04 ms^−1
- 1/τon Mean [1, 6]: 3.07E−04 ms^−1
- 1/τoff Mean ([1]; −40 mV, L-Sorbose 5 mM in cis): 5.01E−04 ms^−1
- 1/τon Mean ([1]; −40 mV, L-Sorbose 5 mM in cis): 7.6E−04 ms^−1
- resistive pulse events with M2 MspA (octameric M2 MspA-D16H6): failed to cause any resistive pulse events
